Measurements: ChEMBL document CHEMBL4393714, “Multi-targeting protein-protein interaction inhibitors: Evolution of macrocyclic ligands with embedded carbohydrates (MECs) to improve selectivity” (Eur J Med Chem, 2019)
pIC50, pKi: −log10 of the molar value.

Assays:
Rattus norvegicus [1] = species on record: Rattus norvegicus; test: Displacement of [3H] TBPS from rat GABA gated chloride channel at 10 uM measured after 120 mins by scintillation counter method relative to control
Rattus norvegicus [2] = species on record: Rattus norvegicus; test: Displacement of [3H] batrachotoxinin from rat sodium channel site 2 at 10 uM measured after 60 mins by scintillation counter method relative to control
[3] = molecular target: Vasopressin V1a receptor (Homo sapiens) (UniProt P37288); test: Displacement of [3H] AVP from human recombinant vasopressin V1A receptor at 10 uM measured after 60 mins by scintillation counter method relative to control
Chain of Vasopressin V1a receptor (Homo sapiens) (P37288 whole entry, looked up): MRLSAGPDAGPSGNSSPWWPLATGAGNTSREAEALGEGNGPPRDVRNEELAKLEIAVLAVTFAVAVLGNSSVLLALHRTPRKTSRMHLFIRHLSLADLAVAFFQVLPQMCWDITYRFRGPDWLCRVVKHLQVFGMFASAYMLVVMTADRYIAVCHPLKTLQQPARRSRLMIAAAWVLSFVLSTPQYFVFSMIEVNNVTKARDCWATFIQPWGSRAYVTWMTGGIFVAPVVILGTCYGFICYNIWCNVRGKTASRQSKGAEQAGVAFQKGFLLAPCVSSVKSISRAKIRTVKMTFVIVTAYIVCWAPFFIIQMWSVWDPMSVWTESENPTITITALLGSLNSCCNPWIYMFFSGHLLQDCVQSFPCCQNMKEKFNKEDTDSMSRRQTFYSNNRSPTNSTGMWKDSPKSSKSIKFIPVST

[4] = molecular target: 5-hydroxytryptamine receptor 7 (Homo sapiens) (UniProt P34969); test: Displacement of [3H]LSD from human recombinant 5-HT7 receptor at 10 uM measured after 120 mins by scintillation counter method relative to control
[5] = molecular target: T1, 5-hydroxytryptamine receptor 2B (Homo sapiens, UniProt P41595); test: Displacement of [125I](+/-)DOI from human recombinant 5-HT2B receptor at 10 uM measured after 60 mins by scintillation counter method relative to control
T1 sequence (P41595 whole entry): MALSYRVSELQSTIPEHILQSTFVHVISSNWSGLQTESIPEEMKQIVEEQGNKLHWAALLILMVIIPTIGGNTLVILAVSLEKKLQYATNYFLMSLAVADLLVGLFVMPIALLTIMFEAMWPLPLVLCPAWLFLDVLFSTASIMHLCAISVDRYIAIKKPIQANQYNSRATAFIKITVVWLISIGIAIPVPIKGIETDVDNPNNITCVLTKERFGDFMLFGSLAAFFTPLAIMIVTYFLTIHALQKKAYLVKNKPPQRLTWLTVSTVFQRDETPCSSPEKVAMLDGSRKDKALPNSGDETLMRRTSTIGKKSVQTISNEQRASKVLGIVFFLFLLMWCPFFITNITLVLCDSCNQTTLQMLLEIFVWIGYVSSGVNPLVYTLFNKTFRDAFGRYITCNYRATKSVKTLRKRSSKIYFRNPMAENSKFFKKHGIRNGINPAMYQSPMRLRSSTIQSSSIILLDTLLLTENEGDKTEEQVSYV

[6] = molecular target: T2, 5-hydroxytryptamine receptor 2A (Homo sapiens, UniProt P28223); test: Displacement of [3H] ketanserin from human recombinant 5-HT2A receptor at 10 uM measured after 60 mins by scintillation counter method relative to control
T2 sequence (P28223 whole entry): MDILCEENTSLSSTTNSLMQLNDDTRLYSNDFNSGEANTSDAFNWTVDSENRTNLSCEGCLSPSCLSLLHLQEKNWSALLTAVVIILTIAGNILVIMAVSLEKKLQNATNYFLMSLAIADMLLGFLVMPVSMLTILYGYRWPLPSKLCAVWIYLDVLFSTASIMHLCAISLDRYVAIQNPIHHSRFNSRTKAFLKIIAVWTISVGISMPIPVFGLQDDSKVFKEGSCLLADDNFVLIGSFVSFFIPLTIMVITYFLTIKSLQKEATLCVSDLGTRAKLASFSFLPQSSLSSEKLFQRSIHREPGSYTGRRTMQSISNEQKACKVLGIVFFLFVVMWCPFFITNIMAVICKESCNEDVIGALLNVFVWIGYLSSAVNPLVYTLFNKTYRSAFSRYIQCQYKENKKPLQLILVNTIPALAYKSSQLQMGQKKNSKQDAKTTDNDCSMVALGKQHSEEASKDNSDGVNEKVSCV

[7] = molecular target: 5-hydroxytryptamine receptor 1A (Homo sapiens) (UniProt P08908); test: Displacement of [3H]-OH-DPAT from human recombinant 5-HT1A receptor at 10 uM measured after 60 mins by scintillation counter method relative to control
[8] = molecular target: Delta-type opioid receptor (Homo sapiens) (UniProt P41143); test: Displacement of [3H] DADLE from human delta opioid receptor at 10 uM measured after 60 mins by scintillation counter method relative to control
[9] = molecular target: Neurotensin receptor type 1 (Homo sapiens) (UniProt P30989); test: Displacement of [125I]Tyr3-neurotensin from human recombinant neurotensin receptor type1 at 10 uM measured after 60 mins by scintillation counter method relative to control
[10] = molecular target: Neuropeptide Y receptor type 2 (Homo sapiens) (UniProt P49146); test: Displacement of [125I] peptide YY from human neuropeptide Y2 receptor at 10 uM measured after 60 mins by scintillation counter method relative to control
Chain of Neuropeptide Y receptor type 2 (Homo sapiens) (P49146 whole entry): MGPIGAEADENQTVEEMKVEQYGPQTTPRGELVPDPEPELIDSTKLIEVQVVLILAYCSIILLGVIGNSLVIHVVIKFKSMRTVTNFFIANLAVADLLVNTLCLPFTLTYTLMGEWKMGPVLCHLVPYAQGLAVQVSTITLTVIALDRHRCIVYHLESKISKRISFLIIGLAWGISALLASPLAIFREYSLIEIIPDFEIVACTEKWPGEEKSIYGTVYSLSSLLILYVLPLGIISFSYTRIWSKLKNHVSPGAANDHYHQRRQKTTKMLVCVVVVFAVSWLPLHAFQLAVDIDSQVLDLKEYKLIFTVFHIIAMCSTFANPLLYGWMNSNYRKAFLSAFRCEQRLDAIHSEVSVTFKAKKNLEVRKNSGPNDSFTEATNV

[11] = molecular target: Neuropeptide Y receptor type 1 (Homo sapiens) (UniProt P25929); test: Displacement of [125I] peptide YY from human neuropeptide Y1 receptor at 10 uM measured after 120 mins by scintillation counter method relative to control
Chain of Neuropeptide Y receptor type 1 (Homo sapiens) (P25929 whole entry): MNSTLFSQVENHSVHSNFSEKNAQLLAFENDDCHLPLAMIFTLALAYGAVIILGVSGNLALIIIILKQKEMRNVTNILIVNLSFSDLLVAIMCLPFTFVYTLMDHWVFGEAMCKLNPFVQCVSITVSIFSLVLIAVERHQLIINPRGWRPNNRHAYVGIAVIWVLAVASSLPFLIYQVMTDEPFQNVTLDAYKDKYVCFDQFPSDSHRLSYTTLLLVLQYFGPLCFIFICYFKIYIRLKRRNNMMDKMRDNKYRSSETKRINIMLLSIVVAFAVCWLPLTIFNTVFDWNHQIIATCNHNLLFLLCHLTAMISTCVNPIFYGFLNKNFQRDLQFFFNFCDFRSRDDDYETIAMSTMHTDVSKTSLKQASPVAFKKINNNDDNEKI

[12] = molecular target: Neuromedin-K receptor (Homo sapiens) (UniProt P29371); test: Displacement of [3H] HSR 142801 from human recombinant neurokinin beta receptor at 10 uM measured after 120 mins by scintillation counter method
[13] = molecular target: Melatonin receptor type 1A (Homo sapiens) (UniProt P48039); test: Displacement of [125I]2-iodomelatonin from human recombinant MT 1 receptor at 10 uM measured after 60 mins by scintillation counter method relative to control
Chain of Melatonin receptor type 1A (Homo sapiens) (P48039 whole entry): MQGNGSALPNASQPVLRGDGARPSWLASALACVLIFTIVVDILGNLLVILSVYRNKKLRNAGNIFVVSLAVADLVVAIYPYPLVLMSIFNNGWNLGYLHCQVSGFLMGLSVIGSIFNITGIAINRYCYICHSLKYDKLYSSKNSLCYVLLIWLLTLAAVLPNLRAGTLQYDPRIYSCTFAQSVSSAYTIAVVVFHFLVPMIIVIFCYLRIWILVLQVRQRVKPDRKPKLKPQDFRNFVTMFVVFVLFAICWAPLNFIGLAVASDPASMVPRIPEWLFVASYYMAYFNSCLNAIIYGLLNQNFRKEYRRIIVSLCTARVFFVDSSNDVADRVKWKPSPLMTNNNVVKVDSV

[14] = molecular target: Melanocortin receptor 4 (Homo sapiens) (UniProt P32245); test: Displacement of [125I]NDP-alpha-MSH from human recombinant MC 4 receptor at 10 uM measured after 120 mins by scintillation counter method relative to control
[15] = molecular target: Histamine H2 receptor (Homo sapiens) (UniProt P25021); test: Displacement of [125I]APT from human recombinant H2 receptor at 10 uM measured after 120 mins by scintillation counter method relative to control
Chain of Histamine H2 receptor (Homo sapiens) (P25021 whole entry): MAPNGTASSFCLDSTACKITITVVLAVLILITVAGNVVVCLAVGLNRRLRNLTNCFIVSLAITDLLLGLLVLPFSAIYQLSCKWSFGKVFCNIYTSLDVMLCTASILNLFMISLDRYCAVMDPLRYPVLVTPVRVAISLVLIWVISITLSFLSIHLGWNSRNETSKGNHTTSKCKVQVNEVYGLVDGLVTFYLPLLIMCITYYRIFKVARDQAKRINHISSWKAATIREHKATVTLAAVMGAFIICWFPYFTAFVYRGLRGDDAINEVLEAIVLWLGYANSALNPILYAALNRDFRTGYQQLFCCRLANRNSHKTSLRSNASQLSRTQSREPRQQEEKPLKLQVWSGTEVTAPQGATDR

[16] = molecular target: Histamine H1 receptor (Homo sapiens) (UniProt P35367); test: Displacement of [3H]pyrilamine from human recombinant H1 receptor at 10 uM measured after 60 mins by scintillation counter method relative to control
Chain of Histamine H1 receptor (Homo sapiens) (P35367 whole entry): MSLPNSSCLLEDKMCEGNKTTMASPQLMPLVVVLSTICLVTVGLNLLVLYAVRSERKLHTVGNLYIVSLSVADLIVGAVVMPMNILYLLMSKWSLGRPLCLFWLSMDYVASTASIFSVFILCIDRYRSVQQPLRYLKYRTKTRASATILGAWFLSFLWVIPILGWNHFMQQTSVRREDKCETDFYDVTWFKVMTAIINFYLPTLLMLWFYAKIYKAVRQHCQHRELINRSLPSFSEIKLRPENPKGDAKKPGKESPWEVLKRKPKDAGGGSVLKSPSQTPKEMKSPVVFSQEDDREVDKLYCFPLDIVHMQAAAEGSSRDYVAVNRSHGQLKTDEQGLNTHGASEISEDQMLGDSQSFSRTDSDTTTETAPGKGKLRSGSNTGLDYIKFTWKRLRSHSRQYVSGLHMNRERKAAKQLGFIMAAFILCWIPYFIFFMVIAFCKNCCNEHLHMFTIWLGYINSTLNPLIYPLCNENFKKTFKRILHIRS

[17] = molecular target: Cholecystokinin receptor type A (Homo sapiens) (UniProt P32238); test: Displacement of [125I]CCK-8s from human recombinant CCK1 receptor at 10 uM measured after 60 mins by scintillation counter method relative to control
[18] = molecular target: B2 bradykinin receptor (Homo sapiens) (UniProt P30411); test: Displacement of [3H]bradykinin from human recombinant B2 receptor at 10 uM measured after 60 mins by scintillation counter method relative to control
Chain of B2 bradykinin receptor (Homo sapiens) (P30411 whole entry): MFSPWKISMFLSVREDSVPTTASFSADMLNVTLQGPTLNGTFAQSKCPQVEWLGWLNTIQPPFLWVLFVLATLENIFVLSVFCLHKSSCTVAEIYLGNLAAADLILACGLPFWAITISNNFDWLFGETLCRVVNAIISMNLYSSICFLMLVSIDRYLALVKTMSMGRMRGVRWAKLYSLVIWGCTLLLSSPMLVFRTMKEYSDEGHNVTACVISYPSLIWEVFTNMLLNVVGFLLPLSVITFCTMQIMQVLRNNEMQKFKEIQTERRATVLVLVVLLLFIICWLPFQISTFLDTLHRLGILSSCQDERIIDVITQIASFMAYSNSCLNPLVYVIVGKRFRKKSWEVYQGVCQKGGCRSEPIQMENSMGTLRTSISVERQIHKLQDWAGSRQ

[19] = molecular target: Type-1 angiotensin II receptor (Homo sapiens) (UniProt P30556); test: Displacement of [125I][Sar1,Ile8]-AT-II from human recombinant AT1 receptor at 10 uM measured after 120 mins by scintillation counter method relative to control
[20] = molecular target: Adrenergic receptor alpha-2 (Rattus norvegicus) (UniProt P22086+P19328+P22909); test: Displacement of [3H] RX 821002 from rat alpha2 adreno receptor at 10 uM measured after 60 mins by scintillation counter method relative to control; assay type: protein assay
[21] = molecular target: Adenosine receptor A3 (Homo sapiens) (UniProt P0DMS8); test: Displacement of [125I] AB-MECA from human recombinant A3 receptor at 10 uM measured after 120 mins by scintillation counter method relative to control
Chain of Adenosine receptor A3 (Homo sapiens) (P0DMS8 whole entry): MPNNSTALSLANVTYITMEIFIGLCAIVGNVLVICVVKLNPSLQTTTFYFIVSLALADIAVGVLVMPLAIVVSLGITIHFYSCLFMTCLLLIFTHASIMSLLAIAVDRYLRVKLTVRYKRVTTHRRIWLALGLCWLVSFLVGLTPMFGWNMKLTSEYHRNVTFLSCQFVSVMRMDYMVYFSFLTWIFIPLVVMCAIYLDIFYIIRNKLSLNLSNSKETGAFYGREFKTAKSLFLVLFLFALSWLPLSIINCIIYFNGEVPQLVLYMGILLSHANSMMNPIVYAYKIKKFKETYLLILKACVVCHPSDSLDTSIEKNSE

[22] = molecular target: Adenosine receptor A2a (Homo sapiens) (UniProt P29274); test: Displacement of [3H]CGS 21680 from human recombinant A2A receptor at 10 uM measured after 120 mins by scintillation counter method relative to control
[23] = molecular target: Adenosine receptor A1 (Homo sapiens) (UniProt P30542); test: Displacement of [3H]DPCPX from human recombinant A1 receptor at 10 uM measured after 60 mins by scintillation counter method relative to control
Chain of Adenosine receptor A1 (Homo sapiens) (P30542 whole entry): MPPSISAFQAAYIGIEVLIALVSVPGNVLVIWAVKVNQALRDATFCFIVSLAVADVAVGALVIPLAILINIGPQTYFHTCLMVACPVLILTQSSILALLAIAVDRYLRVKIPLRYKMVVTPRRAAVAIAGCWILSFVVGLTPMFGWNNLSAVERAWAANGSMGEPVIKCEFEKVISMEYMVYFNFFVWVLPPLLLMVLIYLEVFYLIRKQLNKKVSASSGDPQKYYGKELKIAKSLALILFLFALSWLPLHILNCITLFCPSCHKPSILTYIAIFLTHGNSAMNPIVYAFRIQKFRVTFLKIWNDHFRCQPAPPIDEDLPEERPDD

[24] = molecular target: T3, 5-hydroxytryptamine receptor 1A (Homo sapiens, UniProt P08908); test: Displacement of [3H]OH-DPAT from human recombinant 5-HT1A receptor measured after 60 mins by scintillation counter method
T3 sequence (P08908 whole entry): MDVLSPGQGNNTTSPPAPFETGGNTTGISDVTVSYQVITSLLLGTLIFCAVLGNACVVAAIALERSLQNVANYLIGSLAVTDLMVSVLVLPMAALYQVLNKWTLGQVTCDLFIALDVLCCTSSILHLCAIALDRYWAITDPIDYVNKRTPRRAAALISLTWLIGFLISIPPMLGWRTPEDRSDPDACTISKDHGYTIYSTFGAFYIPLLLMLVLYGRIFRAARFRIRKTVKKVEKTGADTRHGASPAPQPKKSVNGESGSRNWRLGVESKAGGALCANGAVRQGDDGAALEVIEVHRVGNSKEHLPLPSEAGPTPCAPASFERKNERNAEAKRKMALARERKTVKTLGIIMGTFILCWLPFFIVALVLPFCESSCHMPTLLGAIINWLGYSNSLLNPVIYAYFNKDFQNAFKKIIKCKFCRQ

[25] = molecular target: T2, 5-hydroxytryptamine receptor 2A; test: Displacement of [3H] ketanserin from human recombinant 5-HT2A receptor measured after 60 mins by scintillation counter method
[26] = molecular target: T1, 5-hydroxytryptamine receptor 2B; test: Antagonist activity at human recombinant 5-HT2B receptor in CHOK1 cells measured after 30 mins by HTRF assay; assay type: cell-based
[27] = molecular target: 5-hydroxytryptamine receptor 2C (Homo sapiens, UniProt P28335); test: Displacement of [3H] mesulergine from human recombinant 5-HT2C receptor measured after 120 mins by scintillation counter method
Chain of 5-hydroxytryptamine receptor 2C (P28335 whole entry): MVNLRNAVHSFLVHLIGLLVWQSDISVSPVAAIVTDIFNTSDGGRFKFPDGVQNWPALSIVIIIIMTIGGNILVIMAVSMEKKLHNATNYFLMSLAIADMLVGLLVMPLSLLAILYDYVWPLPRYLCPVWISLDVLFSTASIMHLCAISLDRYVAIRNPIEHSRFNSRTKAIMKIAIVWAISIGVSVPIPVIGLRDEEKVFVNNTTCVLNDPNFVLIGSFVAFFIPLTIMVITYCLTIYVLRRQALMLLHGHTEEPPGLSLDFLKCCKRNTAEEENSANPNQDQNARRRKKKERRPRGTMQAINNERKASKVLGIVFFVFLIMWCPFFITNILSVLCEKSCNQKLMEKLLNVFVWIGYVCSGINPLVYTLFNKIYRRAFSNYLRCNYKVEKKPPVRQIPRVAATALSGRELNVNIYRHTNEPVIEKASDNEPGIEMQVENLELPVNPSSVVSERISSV

CC(C)CCO[C@@H]1[C@H]2OC(C)(C)O[C@H]2[C@H]2Cn3cc(nn3)COCCCCCCN(CCc3ccc4ccccc4c3)CC[C@H]1O2 showed an inhibition (Rattus norvegicus [1]) of 62.4%, an inhibition (Rattus norvegicus [2]) of 102% and an inhibition [3] of 19%. It also gave an inhibition [4] of 22.7%, an inhibition [5] of 81.6% and an inhibition [6] of 93.2%. It also gave an inhibition [7] of 90.2%, an inhibition [8] of 83.4% and an Activity [9] of 15.7%. For the same compound, the inhibition [10] was 10.8%, the Activity [11] was 3.3% and the inhibition [12] was 48.3%. It also gave an inhibition [13] of 29.2%, an inhibition [14] of 34% and an inhibition [15] of 27.4%. For the same compound, the inhibition [16] was 60.5%, the inhibition [17] was 61.4% and the Activity [18] was 9.4%. The inhibition [19] was 17.2%, the inhibition [20] was 5% and the inhibition [21] was 87.1%. It also gave an inhibition [22] of 14.6%, an inhibition [23] of 19% and a pIC50 [24] of 6.31. It also gave a pKi [24] of 6.51, a pIC50 [25] of 5.74 and a pKi [25] of 6.01. For the same compound, the pIC50 [26] was 5.80, the pKi [26] was 6.06 and the pIC50 [27] was under 4.00. It also gave a pKi [27] of under 4.00.
